This is an account of results in paper PMC11289669, “BAR502/fibrate conjugates: synthesis, biological evaluation and metabolic profile” (Frontiers in Chemistry, 2024).

Values joined by “and” are separate entries in the source; they are usually repeats but may differ in a detail not shown here. Equal entries are not always repeated.

Assay [1] has as its target T1, GPBAR1 (Homo sapiens, UniProt Q8TDU6).
T1 construct: expressed in transfected cells; host or cells: HEK-293T
T1 sequence (Q8TDU6 1-330): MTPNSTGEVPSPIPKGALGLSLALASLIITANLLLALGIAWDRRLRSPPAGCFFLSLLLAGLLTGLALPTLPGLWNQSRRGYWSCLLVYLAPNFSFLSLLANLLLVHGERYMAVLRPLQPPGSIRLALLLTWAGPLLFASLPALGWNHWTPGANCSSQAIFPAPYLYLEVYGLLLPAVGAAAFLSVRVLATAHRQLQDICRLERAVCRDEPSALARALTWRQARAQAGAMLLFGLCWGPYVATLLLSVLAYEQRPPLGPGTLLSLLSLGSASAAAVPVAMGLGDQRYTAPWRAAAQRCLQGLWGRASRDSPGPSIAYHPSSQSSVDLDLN
The experiment in a line: GPBAR1 transactivation (CRE-luciferase reporter) assay in HEK-293T cells. It is filed as cell-based. The conditions noted are these: for Emax: 18 h, read-out: GPBAR1 efficacy (% vs. TLCA); for EC50: transactivation assay, HEK-293T cells. Here is the method: HepG2 and HEK-293T cells were cultured at 37 °C in minimal essential medium (MEM) and Dulbecco’s Modified Eagle Medium (DMEM) respectively, supplemented with 10% fetal bovine serum, 1% L-glutamine, 100 U/mL penicillin, and 100 μg/mL streptomycin. To investigate FXR-mediated transactivation, the HepG2 cells were transfected with 200 ng of the reporter vector p (hsp27)TK-Luc containing the FXR response element IR1 cloned from the promoter of heat shock protein 27 (hsp27), plus 100 ng pSG5-FXR, 100 ng pSG5-RXR, and 100 ng pGL4.70 Renilla. To evaluate GPBAR1 mediated transactivation, HEK-293T cells were transfected with 200 ng of human pGL4.29 (Promega), a reporter vector containing a cAMP response element (CRE) that drives the transcription of the luciferase reporter gene luc2P, with 100 ng of pCMVSPORT6-human GPBAR1, and with 100 ng of pGL4.70. At 24 h post-transfection, cells were stimulated 18 h with 10 μM TLCA (taurolithocholic acid a GPBAR1 agonist) or CDCA (FXR agonist) and compounds. To calculate the EC50 on FXR and GPBAR1, dose-response curves were performed in HEK-293T cells transfected as described above and then treated with increasing concentrations of compounds (from 0.1 to 50 µM). After treatments, cells were lysed in 100 μL of lysis buffer (25 mM Tris-phosphate, pH 7.8; 2 mM DTT; 10% glycerol; 1% Triton X-100), and 10 μL of cellular lysate was assayed for luciferase activity using the Firfly &Renilla Luciferase assay kit (Biotium). Luminescence was measured using Glomax 20/20 luminometer (Promega). Luciferase activities were assayed and normalized with Renilla activities.

The target in assay [2] is T2, FXR (Homo sapiens, UniProt Q96RI1).
T2 sequence (Q96RI1 262-486 limits assumed): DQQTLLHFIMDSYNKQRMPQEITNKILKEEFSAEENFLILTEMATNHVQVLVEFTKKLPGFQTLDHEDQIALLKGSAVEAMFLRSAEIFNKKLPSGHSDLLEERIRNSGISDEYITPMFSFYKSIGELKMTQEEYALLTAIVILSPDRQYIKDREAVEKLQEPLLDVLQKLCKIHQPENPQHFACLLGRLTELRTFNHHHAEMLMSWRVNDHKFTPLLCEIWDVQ
In words: AlphaScreen coactivator (SRC-1) recruitment assay on FXR. It is filed as biochemical. The conditions noted are these: for FXR efficacy (% vs. CDCA): AlphaScreen SRC-1 recruitment, compounds at 10 μM, CDCA = 100%; for EC50: AlphaScreen coactivator recruitment, FXR with SRC-1. As to the method: Compounds’ ability to mediate cofactor recruitment was evaluated by employing AlphaScreen GST Detection Kit (PerkinElmer). Particularly, FXR agonism was evaluated employing 10 nM FXR-LBD GST-fused (Thermo Scientific) and 30 nM of biotinylated SRC1 peptide ([…]) in the presence of 20 μg/mL donor and acceptor beads and in buffer containing 50 mM Tris-HCl (pH7.4), 20 mM KCl, 1 mM DTT, and 0.1% BSA. For PPARα assay, a buffer containing 50 mM MOPS, 50 mM NaF, 0.05 mM CHAPS, and 0.05% BSA (pH = 7.4) was used, and 20 nM PPARα LBD GST fused (Thermo Scientific) and 60 nM of biotinylated SRC1 peptide were employed. Both acceptor and donor beads were added to reach 20 μg/mL final concentration. Incubations were performed in a final volume of 25 μL employing 384 wells Optiplate and Alpha signal was measured with Envision 2,105 (Perkin Elmer) multimode plate reader. For efficacy, compounds were tested at 10 μM for FXR and 50 μM for PPARα.

The test system of assay [3] is U937 cells. The experiment in a line: Pro-inflammatory gene expression (qRT-PCR) in LPS-activated U937 cells. It is filed as cell-based, human. The conditions noted are these: LPS 100 ng/mL, 18 h, compound 1 10 μM; for IL-1β mRNA expression / IL-6 mRNA expression: BAR502 and clofibrate 5 and 10 μM. Here is the method: U937 cell line were cultured in RPMI 1640 supplemented with 10% FBS, 1% glutamine, and 1% penicillin/streptomycin and were regularly passaged to maintain exponential growth. After 24 h of starvation cells were classically activated with LPS (100 ng/mL; Sigma-Aldrich, St. Louis, MO), and exposed or not to BAR502, clofibrate and compound 1 at the concentration of 5 and 10 μM for 18 h. At the end of the experiment the cells were recovered. Total mRNA extraction from U937 and 3T3.L1 was performed using Tri-Reagent (Zymo Research) and Direct-zolTM RNA MiniPrep w/Zymo-SpinTM IIC Columns (Zymo Research, Irvine, CA). After purification from genomic DNA using DNase I (Thermo Fisher Scientific, Waltham, MA), 1 μg of RNA from each sample was reverse transcribed using Kit […] Basic (Nippon Genetics, […] 20-μL of reaction volume; 50 ng of cDNA was amplified in a 20-μL solution containing 200 nM each primer and 10 μL of PowerUpTM SYBRTM Green Master Mix (Thermo Fisher Scientific, Waltham, MA). All reactions were performed in triplicate using the following thermal cycling conditions: 3 min at 95°C, followed by 40 cycles of 95°C for 15 s, 56°C for 20 s, and 72°C for 30 s, using a QuantStudio 3 system (Applied Biosystems, Foster City, CA). The relative mRNA expression was calculated accordingly to the ΔCt method. Primers were designed using the software PRIMER3 (http://frodo.wi.mit.edu/primer3/) using published data obtained from the NCBI database. The primer used were as following (forward and reverse): hGAPDH (for […]-1β (for [NT], hIL6 (for [NT] hCXCL2 (for [NT] hTNFα; (for [NT], mAdiponectin (for […]ɤ (for [NT], mCebp (for [NT]

[4] abbreviates: transactivation on HEK-293T cells, TLCA 10 μM = 100%.

For the compound `CC[C@@H]1C2C[C@H](O)CC[C@]2(C)C2CC[C@@]3(C)C(CC[C@@H]3[C@H](C)CCOC(=O)C(C)(C)Oc3ccc(Cl)cc3)C2[C@@H]1O` (some centres unmarked) [Compound 1], in assay [1] (setting [4]), the Emax is 145% and the “GPBAR1 efficacy (% vs. TLCA)” value amounted to 145 ± 10%. This compound also registered a concentration giving a half-maximal response (EC50) in assay [1] of 370 ± 20 nM. In assay [2], the “FXR efficacy (% vs. CDCA)” value was 79% and 79.0 ± 3.8%; the concentration giving a half-maximal response (EC50) turned out to be 3400 ± 1200 nM. In assay [3], the “IL-1β mRNA expression” value is “greatest efficacy in reducing the expression”, the “IL-6 mRNA expression” value is “greatest efficacy in reducing the expression” and the “CXCL2 mRNA expression” value is “the only compound also reducing the expression”.

For the compound `CC[C@H]1[C@@H](O)[C@@H]2[C@H](CC[C@]3(C)[C@@H]([C@H](C)CCO)CC[C@@H]23)[C@@]2(C)CC[C@@H](O)C[C@@H]12` [BAR502, 6α-ethyl-3α,7α-dihydroxy-24-nor-5β-cholan-23-ol], in assay [1] (setting [4]), the Emax was determined as 79.5 ± 11.8%. The same compound returned a concentration for a half-maximal effect (EC50) in assay [1] of 400 ± 100 nM. Further, in assay [2], the “FXR efficacy (% vs. CDCA)” value is recorded as 153.0 ± 3.1% and the 50% effective concentration (EC50) was determined as 690 ± 150 nM. In assay [3], the “IL-1β mRNA expression” value is on record as “reducing the expression of pro-inflammatory cytokines” and the “IL-6 mRNA expression” value is given as “reducing the expression of pro-inflammatory cytokines”.
